Data: US9051248B2, “Methods, compounds, and compositions for delivering 1,3-propanedisulfonic acid” (BHI Limited Partnership, priority 2009, dated 2015)
Read-outs that look alike come from different tables or passages of the source. Each block holds one compound with its values, some of them ahead of it.

Tests used:
[1] = rat, in vivo, po, 100 mg/kg
[2] = PK study in rats (1,3PDS plasma AUC after oral administration of prodrugs); details: rat plasma, oral gavage, dose molar equivalent to 100 mg/kg 1,3PDS(2Na)
[3] = Human whole blood stability; format: in vitro ADME; details: fresh human whole blood, 37° C.; for Conversion to 1,3PDS (% by molar ratio) 0 h: about 100 μg/mL
Experimental: The objective of this test was to determine the stability of the prodrugs in fresh human whole blood at different time-points (0, 0.5, 1, 4, 24 hours). Blood samples were incubated in a shaking water bath at 37° C. for up to 24 hours. The compound (prodrug) was added at Time-point 0, and sample aliquots were withdrawn and analyzed at each time point to determine the concentration of 1,3PDS. If possible, the loss of compound was determined by the amounts of compound determined at each time point compared to the amount determined at Time-point 0. To eliminate the conversion due to the matrix, a special Time-point 0 was prepared in pre-extracted blood sample.
Approximately 2.5 mL of whole blood was incubated in a gently shaking water bath at 37° C. for 15 minutes. Two (2) mL of the pre-incubated whole blood were aliquoted in an eppendorf tube. A 100 μL aliquot of blood was removed and 100 μL of the compound Stock Solution was added. The solution was mixed by inversion. This sample was referred to as Tube A. The final concentration of the compound in tube A was approximately at 100 μg/mL. Immediately after mixing, 100 μL of Tube A was aliquotted into 3 different eppendorf tubes. These samples were extracted as described in the “Extraction Procedure” Section. These samples were referred to Time-point 0. Thereafter, the incubation of Tube A was continued in the shaking water bath at 37° C. for 0.5, 1, 4 and 24 hours. At each specific time point of incubation, aliquots (triplicate) of 100 μL were removed and extracted as described in the “Extraction Procedure” Section. To avoid potential further degradation of compound and/or possible degradation products, the aliquot extracts were kept on ice until analysis. After extraction, samples were analyzed using LC-MS/MS method.
A volume of 300 μL of cold-ice acetonitrile was added to a 1.5 mL eppendorf tube and kept on ice until utilization. 100 μL of the sample to be extracted was added and the mix was vortexed (acetonitrile and blood). The sample was centrifuged at 16250×g (13200 rpm on IEC centrifuge with eppendorf rotor) for 5 minutes. A volume of 250 μL of the supernatant was transferred to another tube and evaporated to dryness under a nitrogen stream. The residue was reconstituted with the mobile phase. This sample was then analyzed according to 1,3PDS specific methods.
The concentrations of 1,3PDS were calculated based on the nominal concentration of the calibration standards and their respective peak area ratio. A linear regression using a weight of 1/x^2 is used to derive the concentration of 1,3PDS. The % appearance of 1,3PDS was determined by the amounts of compound determined at each time point compared to nominal concentration (100%) of 1,3PDS generated by 100% of the prodrug (equivalent concentration).

[4] = Simulated gastric fluid (SGF) stability; format: in vitro ADME; details: SGF pH 1.5 with pepsin, 37° C.
Experimental: (§1) The objective of this test was to determine the stability of the prodrugs in simulated gastric fluid (SGF) and water at 37° C. up to 2 hours and in water at room temperature up to 24 hours.
(§2) Simulated gastric fluid and water samples were incubated in a shaking water bath at 37° C. for up to 2 hours. The compound (prodrug) was added at Time-point 0. At each selected time point (refer to table), sample aliquots were withdrawn and analyzed to determine the concentration of 1,3-propanedisulfonic acid (1,3PDS). The concentrations of 1,3PDS were calculated based on their respective peak area. The % appearance of 1,3PDS was determined by the amounts of compound determined at each time point compared to nominal concentration (100%) of 1,3PDS generated by 100% of the prodrug (equivalent concentration).
Amounts of 0.2 g of sodium chloride and 0.32 g of pepsin were weighted and transferred into a 100-mL volumetric flask. Approximately 50 mL of deionized water was added and the mixture well mixed. A volume of 700 μL of hydrochloric acid was added, and the volume completed to 100 mL with deionized water. The resulting mixture was transferred in a polypropylene bottle and pH measured (pH=1.5).
A fresh stock solution at approximately 2 mg/mL of the compound was prepared. One stability solution at 200 μg/mL in the SGF was prepared (sample referred to as Tube A). […] Immediately after preparation, each 200 μg/mL solution was diluted in triplicates to 20 μg/mL in deionized water and analyzed using LC-MS/MS method (Time-point 0). […] At each specific time point of incubation, 3 aliquots (triplicate) of 50 μL were removed, diluted in 450 μL of water and analyzed using LC-MS/MS method. […]
(§3) The concentrations of 1,3PDS were calculated based on response of the reference samples and their respective peak area response. The % appearance of 1,3PDS was determined by the amounts of compound determined at each time point compared to expected nominal concentration (100%) of 1,3PDS generated by 100% of the prodrug (equivalent concentration).

[5] = Water stability (conversion of prodrug to 1,3PDS); format: physicochemical; details: deionized water; for Conversion to 1,3PDS (%) 1 h / Conversion to 1,3PDS (%) 2 h: 37° C.; for Conversion to 1,3PDS (%) 0 h / Conversion to 1,3PDS (%) 24 h: room temperature; for Conversion to 1,3PDS (%) 0 h: 200 μg/mL
Experimental: as §1, §2
A fresh stock solution at approximately 2 mg/mL of the compound was prepared. One stability solution at 200 μg/mL in the SGF was prepared (sample referred to as Tube A). A stability solution at 200 μg/mL in deionized water was prepared (sample referred to as Tube B). Immediately after preparation, each 200 μg/mL solution was diluted in triplicates to 20 μg/mL in deionized water and analyzed using LC-MS/MS method (Time-point 0). Thereafter, the incubation of tubes A and B was continued in the shaking water bath at 37° C. for 1 and 2 hours while one aliquot of tube B was kept at room temperature for 24 hours. At each specific time point of incubation, 3 aliquots (triplicate) of 50 μL were removed, diluted in 450 μL of water and analyzed using LC-MS/MS method. In parallel, 3 reference samples of 1,3PDS at 100, 10 and 1 μg/mL were prepared, diluted in triplicate in water and injected at the beginning and at the end of the batch. These samples were considered as reference samples.
as §3

[6] = vehicle 2 0.5% Methocel in water

SMILES: CC(C)(C)C(C#N)OS(=O)(=O)CCCS(=O)(=O)OC(C#N)C(C)(C)C (stereo not shown) [Compound B84]
1,3PDS AUC0-Tlast ([1]; male, Sprague-Dawley): 2953 ng·h/mL

1,3PDS AUC0-Tlast [2, 6]: BLLQ
SMILES: CC(CO)(CO)COS(=O)(=O)CCCS(=O)(=O)O [A68(Na)]

Conversion to 1,3PDS (% by molar ratio) 0.5 h [3]: 0.1 % by molar ratio | Conversion to 1,3PDS (% by molar ratio) 1 h [3]: 0.2 % by molar ratio | Conversion to 1,3PDS (% by molar ratio) 4 h [3]: 0.4 % by molar ratio | Conversion to 1,3PDS (% by molar ratio) 24 h [3]: 2.0 % by molar ratio | Conversion to 1,3PDS (% by molar ratio) 0 h [3]: 0.1 % by molar ratio | Conversion to 1,3PDS (%) 0 h ([4]; 0 h): 0.0% | Conversion to 1,3PDS (%) 1 h ([4]; 1 h): 0.0% | Conversion to 1,3PDS (%) 2 h ([4]; 2 h): 0.0% | 1,3PDS AUC0-Tlast ([2]; vehicle 1 water): 1097 ng·h/mL | Conversion to 1,3PDS (%) 1 h [5]: 0.1% | Conversion to 1,3PDS (%) 2 h [5]: 0.1% | Conversion to 1,3PDS (%) 0 h [5]: 0.0% | Conversion to 1,3PDS (%) 24 h [5]: 0.0%
SMILES: COC(=O)c1ccccc1OS(=O)(=O)CCCS(=O)(=O)O [A32(Na)]

SMILES: CC(C)(COS(=O)(=O)CCCS(=O)(=O)OCC(C)(C)[N+](=O)[O-])[N+](=O)[O-] [Compound B72]
1,3PDS AUC0-Tlast [1]: BLLQ

Conversion to 1,3PDS (% by molar ratio) 0.5 h [3]: AULQ | Conversion to 1,3PDS (% by molar ratio) 1 h [3]: AULQ | Conversion to 1,3PDS (% by molar ratio) 4 h [3]: AULQ | Conversion to 1,3PDS (% by molar ratio) 24 h [3]: AULQ | Conversion to 1,3PDS (% by molar ratio) 0 h [3]: AULQ | Conversion to 1,3PDS (%) 1 h [5]: 57.3% | Conversion to 1,3PDS (%) 2 h [5]: 63.1% | Conversion to 1,3PDS (%) 0 h [5]: 50.3% | Conversion to 1,3PDS (%) 24 h [5]: 61.2%
SMILES: O=S1(=O)CCCS(=O)(=O)O1 [Compound C1]

1,3PDS AUC0-Tlast [2, 6]: BLLQ
SMILES: O=S(O)CCCS(=O)O [P1(2Na)]

1,3PDS AUC0-Tlast [2, 6]: BLLQ
SMILES: CC(C)(C#N)COS(=O)(=O)CCCS(=O)(=O)OCC(C)(C)C#N [Compound B71]

SMILES: CCOP(=O)(OCC)OCC(C)(C)COS(=O)(=O)CCCS(=O)(=O)[O-].[Na+] [A66(Na)]
1,3PDS AUC0-Tlast [2, 6]: BLLQ
